Measured values published in patent US20070003483A1, “Method of evaluating organ function” (Oxygenix Co., Ltd., priority 2003, published 2007).

Legend:
Mrp2 [1] = assay: Immunohistochemical analysis of subcellular Mrp2 distribution in 8-hr cold ischemia-reperfused grafts; set-up: species or system rat; settings: 8-hr cold ischemia and 60-min reperfusion
Source text: To evaluate Mrp2 in hepatocytes of the grafts, the liver samples were fixed, sliced, and stained with a monoclonal antibody M2III-6, according to previous study (32). The antigen on the sections was visualized by phycoerythrin-conjugated anti-mouse IgG and observed through laser confocal microfluorography at 488 nm as described elsewhere (20, 30). In order to examine BC localization and hepatocellular internalization of Mrp2, the sections were double immunostained with a monoclonal antibody against ZO-1, another marker expressed in hepatocellular junction (33). To determine changes in the protein distribution in a semi-quantitative manner, single-stained microfluorographs of Mrp2 were converted as monochrome 8-bit images (14). The gray levels (1-256) were measured at both cytoplasmic and canalicular domains in a single hepatocytes. At least 5 different sites for each domain were chosen in a single cell to calculate the relative values of cytoplasmic intensities versus the corresponding canalicular intensities. Such a measurement was carried out in 40-60 hepatocytes in 4 different grafts to construct histograms of the percentage cytoplasmic intensities of Mrp2-associated immunoreactivities, being defined as % I-Mrp2(cyt/bc). The elevation of this index represented an increase in the Mtp2 internalization. […]

Mrp2 [2] = target: T1, Mrp2 (Rattus norvegicus, UniProt Q63120); assay: In situ visualization of hepatocellular CF exclusion by intravital laser confocal microfluorography in perfused liver grafts; settings: grafts perfused with 1.5 mM probenecid
T1 construct: Livers of these rats were perfused ex vivo with the oxygenated Krebs-Henseleit buffer; from tissue; host or cells: whole rat liver grafts (Wistar), perfused ex vivo
Description: (§1) Male Wistar rats (220-260 g, CLEA Japan, Tokyo) and Eisai hyperbilirubinemia rats (EHBR) (220-260 g, Sankyo Inc., Tokyo) that had been allowed free access to laboratory chow and tap water were fasted 24 hrs before experiments. Livers of these rats were perfused ex vivo with the oxygenated Krebs-Henseleit buffer as the base-line perfusate (17, 18), and stored in the University of Wisconsin solution at 4° C. for desired lengths of time (14). When necessary, rats were pretreated with an intravenous injection of liposome-encapsulated dichloromethylene diphosphonate (LDD) at 24 hrs prior to preparation of the ex-vivo liver perfusion for the cold storage according to our previous studies (14, 19). […]
Liver grafts loaded with CF using the aforementioned protocols were observed through intravital laser confocal microfluorography as described previously (14, 20, 30). […] To calibrate the fluorescence intensities, known concentrations of CF were prepared in vitro and the images were captured under the identical optical parameters of the camera. Gray levels in hepatocytes were measured by variable square window (2×2 μm^2) using digital image processor (18, 31). At least 10 different hepatocytes in the microscopic fields of interests were analyzed in a single experiment.

Mrp2 [3] = target: T1, Mrp2; assay: Biliary excretion rates of carboxyfluorescein (T1/2 of dye exclusion) in whole perfused liver grafts; settings: normoperfused grafts in the presence of 1.5 mM probenecid
Description: as §1
Carboxyfluorescein (CF) is an organic anion which excreted from various cells through Mrp2 (26, 27). […] Bile samples collected from these preparations were deep-frozen until the fluorescence measurements were carried out using a 96-well multi-channel fluorescence spectrophotometer. The measurements were performed under epi-illumination at 440 nm, the isosbestic wavelength of the dye which yields fluorescence at 510 nm without interference with pH values of the samples (26). […] With this assumption, biliary CF lifetimes were determined as the T1/2 of the exponential decay.

T1 sequence (Q63120 whole entry, the tested form may be a part): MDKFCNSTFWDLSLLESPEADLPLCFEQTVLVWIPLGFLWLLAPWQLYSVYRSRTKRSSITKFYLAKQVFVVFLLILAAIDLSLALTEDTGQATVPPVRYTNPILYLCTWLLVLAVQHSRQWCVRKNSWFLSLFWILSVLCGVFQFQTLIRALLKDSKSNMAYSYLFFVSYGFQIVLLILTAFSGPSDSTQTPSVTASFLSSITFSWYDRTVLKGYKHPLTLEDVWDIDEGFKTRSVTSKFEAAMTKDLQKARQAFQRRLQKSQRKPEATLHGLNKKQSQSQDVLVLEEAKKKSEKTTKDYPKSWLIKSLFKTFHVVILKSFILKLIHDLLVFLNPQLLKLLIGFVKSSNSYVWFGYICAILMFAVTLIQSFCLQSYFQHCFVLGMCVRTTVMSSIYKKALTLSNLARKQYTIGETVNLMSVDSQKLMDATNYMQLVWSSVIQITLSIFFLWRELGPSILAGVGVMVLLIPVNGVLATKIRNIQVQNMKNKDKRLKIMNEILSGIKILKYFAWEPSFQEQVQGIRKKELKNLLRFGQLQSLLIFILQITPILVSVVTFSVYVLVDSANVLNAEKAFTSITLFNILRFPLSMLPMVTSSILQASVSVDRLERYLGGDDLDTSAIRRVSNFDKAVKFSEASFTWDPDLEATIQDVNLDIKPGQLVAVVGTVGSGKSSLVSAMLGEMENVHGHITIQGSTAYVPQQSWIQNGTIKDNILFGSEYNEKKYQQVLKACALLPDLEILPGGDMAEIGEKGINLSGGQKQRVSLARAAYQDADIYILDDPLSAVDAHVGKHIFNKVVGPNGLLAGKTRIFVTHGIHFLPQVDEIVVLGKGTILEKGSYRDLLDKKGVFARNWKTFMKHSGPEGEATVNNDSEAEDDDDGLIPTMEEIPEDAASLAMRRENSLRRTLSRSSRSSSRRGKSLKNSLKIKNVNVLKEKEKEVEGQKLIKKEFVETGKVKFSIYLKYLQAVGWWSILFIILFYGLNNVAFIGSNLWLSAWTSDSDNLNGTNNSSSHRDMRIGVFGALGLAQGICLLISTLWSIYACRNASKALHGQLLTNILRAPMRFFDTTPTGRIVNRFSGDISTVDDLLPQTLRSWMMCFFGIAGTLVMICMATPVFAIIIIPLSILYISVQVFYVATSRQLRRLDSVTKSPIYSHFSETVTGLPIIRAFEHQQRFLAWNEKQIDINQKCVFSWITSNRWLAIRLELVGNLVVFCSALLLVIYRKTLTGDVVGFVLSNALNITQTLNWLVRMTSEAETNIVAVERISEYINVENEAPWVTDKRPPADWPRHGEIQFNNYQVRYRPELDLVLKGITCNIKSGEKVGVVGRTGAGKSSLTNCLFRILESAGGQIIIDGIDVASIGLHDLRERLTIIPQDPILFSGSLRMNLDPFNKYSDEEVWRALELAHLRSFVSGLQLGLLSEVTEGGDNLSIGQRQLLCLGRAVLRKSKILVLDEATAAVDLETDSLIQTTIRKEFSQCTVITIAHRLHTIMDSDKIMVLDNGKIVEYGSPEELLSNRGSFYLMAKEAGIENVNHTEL

| decay of hepatocellular CF fluorescence (Mrp2 transport) (Mrp2 [2]) | transient increase of CF concentrations in bile (Mrp2 [3]) | Structure (SMILES) | Mrp2 internalization (reduced BC localization, elevated cytoplasmic intensity) (Mrp2 [1]) |
| --- | --- | --- | --- |
|  |  | O=C(O)/C=C/c1ccc(Cn2ccnc2)cc1 [OKY-046] | attenuated |
| substantially slowed | not observed | CCCN(CCC)S(=O)(=O)c1ccc(C(=O)O)cc1 [probenecid] |  |
